The values below come from PubChem BioAssay (NCI).

Some test systems named below: ACHN renal; SK-MEL-2 melanoma; OVCAR-3 ovarian; RXF 393 renal; HCT-116 colon; MALME-3M melanoma; CAKI-1 renal; HOP-62 NSCLC; NCI-H522 lung; A498 renal.
Common to all, as to assay: DTP human tumour cell line panel, 48 h

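Cells were grown in 96-well plates and exposed to each compound for 48 hours at five concentrations; endpoints were interpolated linearly between bracketing concentrations, or set to the highest concentration if not reached. Here, GI50 denotes the concentration required for 50% inhibition of growth. TGI: concentration producing complete growth inhibition.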

The term TGI denotes the concentration at which net growth stops. A high value points to less potent growth arrest. In the case of `CC(C)(C)c1ccc(OC(=O)Nc2ccc(O)c(C(=O)O)c2)cc1`, the TGI in the assay on ACHN renal, in the assay on SK-MEL-2 melanoma, with OVCAR-3 ovarian, with RXF 393 renal, in the assay with HCT-116 colon and with MALME-3M melanoma was over 100 µM in each case. The TGI with CAKI-1 renal, in the assay on HOP-62 NSCLC, in the assay with NCI-H522 lung and in the assay with A498 renal was over 100 µM in each case.

In general, GI50 refers to the concentration at which growth is held to half of that of the control. As for `COc1ccc(S(=O)(=O)NC2=NCCN2C(=S)SN2CCn3c2nsc3=S)cc1`, the GI50 in the assay with ACHN renal was 12.9 µM; in the assay with SK-MEL-2 melanoma it was 17.6 µM; in the assay on OVCAR-3 ovarian, 15.5 µM; with RXF 393 renal, 4.11 µM; in the assay on HCT-116 colon, 14.4 µM; in the assay on MALME-3M melanoma, 9.1 µM. Besides, the GI50 with CAKI-1 renal is 17.9 µM; in the assay on HOP-62 NSCLC, 18.9 µM; in the assay on NCI-H522 lung it was 9.62 µM; in the assay with A498 renal, 19.9 µM. For the same compound, the TGI worked out at 26 µM in the assay on ACHN renal; 51.3 µM in the assay with SK-MEL-2 melanoma; 37.4 µM in the assay on OVCAR-3 ovarian; 22.1 µM with RXF 393 renal; 27.9 µM in the assay on HCT-116 colon; 24.9 µM in the assay on MALME-3M melanoma. The TGI in the assay on CAKI-1 renal stood at 62.8 µM; with HOP-62 NSCLC it was 39.2 µM; in the assay with NCI-H522 lung it was 35 µM; in the assay with A498 renal, 51.1 µM.

For `O=C1NC(=O)C(=Nc2cccc3c(=O)[nH][nH]c(=O)c23)C(c2nc3ccccc3s2)C1=O` (stereo not given), the TGI in the assay with ACHN renal, with SK-MEL-2 melanoma, with OVCAR-3 ovarian, in the assay with RXF 393 renal, with HCT-116 colon and with MALME-3M melanoma was over 100 µM in each case. Moreover, the TGI in the assay with CAKI-1 renal, in the assay on HOP-62 NSCLC, with NCI-H522 lung and with A498 renal was over 100 µM in each case.

With `COc1ccc2c(c1)CC[C@@H]1[C@@H]2CC[C@]2(C)[C@@H](NC(=O)/C=C/c3ccc(O)c(O)c3)CC[C@@H]12`, the GI50 was 3.89 µM with ACHN renal; 2.77 µM in the assay with SK-MEL-2 melanoma; 10.6 µM in the assay with OVCAR-3 ovarian; 7.94 µM in the assay on RXF 393 renal; 2.02 µM in the assay on HCT-116 colon; 11.2 µM in the assay with MALME-3M melanoma. In addition, the GI50 in the assay with CAKI-1 renal was 2.03 µM; in the assay on HOP-62 NSCLC, 3.03 µM; in the assay with NCI-H522 lung, 1.68 µM; in the assay with A498 renal, 14.3 µM. For the same compound, the TGI with ACHN renal came out at 14.8 µM; with SK-MEL-2 melanoma it was 11.7 µM; with OVCAR-3 ovarian, 22.7 µM; in the assay on RXF 393 renal it was 46 µM; in the assay on HCT-116 colon it was 10.4 µM; with MALME-3M melanoma it was 25.9 µM. Moreover, the TGI in the assay on CAKI-1 renal worked out at 4.09 µM; in the assay with HOP-62 NSCLC, 11.1 µM; in the assay on NCI-H522 lung, 5.73 µM; in the assay with A498 renal, 31.1 µM.

For the compound `Oc1ccc(-c2nc3ccc4[nH]ncc4c3c3c2CCCC3)c(F)c1`, the GI50 in the assay with ACHN renal was 2.08 µM; in the assay with SK-MEL-2 melanoma it was 1.01 µM; with OVCAR-3 ovarian, 2.89 µM; in the assay with RXF 393 renal, 1.47 µM; in the assay with HCT-116 colon it was 0.739 µM; in the assay with MALME-3M melanoma it was 3.36 µM. Also, the GI50 in the assay with CAKI-1 renal is 2.69 µM; with HOP-62 NSCLC, 1.5 µM; in the assay on NCI-H522 lung it was 1.25 µM; with A498 renal it was 2.25 µM. For the same compound, the TGI is 12.5 µM with ACHN renal; 2.93 µM in the assay on SK-MEL-2 melanoma; 7.85 µM in the assay with OVCAR-3 ovarian; 5.63 µM in the assay on RXF 393 renal; 11 µM in the assay on HCT-116 colon; 12.1 µM in the assay on MALME-3M melanoma. Also, the TGI amounted to 9.73 µM with CAKI-1 renal, 5.47 µM in the assay with HOP-62 NSCLC, 4.72 µM in the assay with NCI-H522 lung and 6.51 µM in the assay with A498 renal.

In the case of `COc1cccc(-c2nn(-c3ccccc3)cc2-c2ccnc(NCCNC(=O)Nc3cccc(C(F)(F)F)c3)c2)c1`, the GI50 in the assay with ACHN renal is 2.91 µM; in the assay on SK-MEL-2 melanoma it was 1.69 µM; in the assay on OVCAR-3 ovarian, 1.99 µM; in the assay on RXF 393 renal, 1.53 µM; in the assay with HCT-116 colon it was 2.88 µM; with MALME-3M melanoma, 1.76 µM. Moreover, the GI50 in the assay with CAKI-1 renal was 1.95 µM; in the assay on HOP-62 NSCLC, 2.52 µM; in the assay with NCI-H522 lung, 1.24 µM; in the assay with A498 renal it was 2.49 µM. The TGI with ACHN renal was found to be 10.4 µM; in the assay on SK-MEL-2 melanoma, 3.6 µM; with OVCAR-3 ovarian, 4.32 µM; in the assay on RXF 393 renal, 3.03 µM; in the assay with HCT-116 colon it was 11.8 µM; with MALME-3M melanoma, 3.9 µM. In addition, the TGI came out at 5.62 µM in the assay with CAKI-1 renal, 5.63 µM with HOP-62 NSCLC, 3.19 µM with NCI-H522 lung and 8.37 µM in the assay with A498 renal.

Turning to `COc1ccc(C(c2ccc(OCCN(C)C)cc2)c2cc3ccccc3c3ccccc23)cc1` (stereo not given), the GI50 in the assay on ACHN renal is 1.7 µM; in the assay with SK-MEL-2 melanoma, 1.54 µM; in the assay with OVCAR-3 ovarian it was 1.66 µM; with RXF 393 renal it was 1.44 µM; in the assay with HCT-116 colon it was 1.68 µM; with MALME-3M melanoma, 1.55 µM. In addition, the GI50 is 1.6 µM in the assay on CAKI-1 renal, 1.54 µM in the assay with HOP-62 NSCLC, 1.55 µM in the assay with NCI-H522 lung and 0.536 µM with A498 renal. The TGI is 3.13 µM with ACHN renal; 2.97 µM with SK-MEL-2 melanoma; 3.07 µM in the assay on OVCAR-3 ovarian; 2.82 µM with RXF 393 renal; 3.14 µM in the assay on HCT-116 colon; 3.12 µM in the assay with MALME-3M melanoma. Further, the TGI in the assay on CAKI-1 renal came to 3.01 µM; in the assay on HOP-62 NSCLC, 3.07 µM; in the assay with NCI-H522 lung, 2.98 µM; with A498 renal, 20.9 µM.
